From patent US9102665B2, “Cysteinyl leukotriene antagonists” (Sun Pharma Advanced Research Company Ltd., priority 2011, dated 2015) come the findings set out here.

Structures are written as SMILES.

In the experiment the target is T1, Leukotriene, Cysteinyl CysLT1 (Cavia porcellus, UniProt Q2NNR5).
T1 construct: from tissue; host or cells: guinea pig lung membrane
T1 sequence (Q2NNR5 1-340): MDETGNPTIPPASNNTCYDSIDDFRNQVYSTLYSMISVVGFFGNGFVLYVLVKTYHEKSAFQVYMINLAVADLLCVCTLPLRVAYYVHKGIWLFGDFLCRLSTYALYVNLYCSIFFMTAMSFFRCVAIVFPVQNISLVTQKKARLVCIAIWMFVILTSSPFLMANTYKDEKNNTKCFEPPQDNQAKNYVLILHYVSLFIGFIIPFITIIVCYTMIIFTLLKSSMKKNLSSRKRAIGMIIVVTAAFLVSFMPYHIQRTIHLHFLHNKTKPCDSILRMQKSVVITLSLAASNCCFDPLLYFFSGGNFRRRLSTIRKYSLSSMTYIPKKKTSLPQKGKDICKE
The experiment can be described thus: receptor radio-ligand-binding assay (Tritiated LTD4 as the ligand), Guinea pig lung membrane. The note with it: 0.2 nM 3H LTD4, Guinea pig lung membrane; for inhibition at 0.001 µM / inhibition at 0.003 µM / inhibition at 0.01 µM: 0.5 h; for inhibition at 0.001 µM: read-out: % Inhbition (in nM) 1; for inhibition at 0.003 µM: read-out: % Inhbition (in nM) 3; for inhibition at 0.01 µM: read-out: % Inhbition (in nM) 10. On the procedure: The primary in-vitro biological screening for the compounds carried-out involving receptor radio-ligand-binding assay (Tritiated LTD4 as the ligand) by known methods described in literature [a). Mong et al. European Journal of Pharmacology (102); 1984 1-11b). Jones et al; Journal of Physiology & Pharmacology (73); 1994, 191-201 c). MDS Pharma Services: 250460 Leukotriene, Cysteinyl CysLT1]. Accordingly, Guinea pig lung membrane (100 ug) is incubated with 0.2 nM 3H LTD4 in presence of Reference Standard/Test item/Vehicle Control. Non Specific Binding is determined by incubating the membrane with 0.2 nM 3H LTD4 in presence of 1 uM of unlabeled LTD4. The samples are incubated at 26° C. for 30 minutes and are vacuum filtered on a membrane to separate the bound and free radioligand. The membrane is counted in a liquid scintillation counter to calculate the bound radioactivity. Specific Binding in Vehicle treated and Reference Standard/Test item treated set is compared to evaluate the % Inhibition values. Some of the compounds have shown >50% inhibition in the presence of ≦3 nano-molar concentration of the compounds of present invention as shown in the following table.

Take `CS(=O)(=O)NC(CCc1ccccc1C(=O)O)c1cccc(/C=C/c2ccc3ccc(Cl)cc3n2)c1` (stereo not drawn) [Ia.11, 2-(3-{3-[(E)-2-(7-Chloro-quinolin-2-yl)-vinyl]phenyl}-3-methanesulfonylamino-propyl)-benzoic acid]: the inhibition at 0.001 µM (1 nM test compound) is 46%. Besides, the inhibition at 0.003 µM (3 nM test compound) was 56%. For the same molecule, the inhibition at 0.01 µM (10 nM test compound) is 71%.

For `O=C(O)c1ccccc1CCC(NC(=O)C(F)(F)F)c1cccc(/C=C/c2ccc3ccc(Cl)cc3n2)c1` (stereo not drawn) [Ia.12, 2-[3-{3-[(E)-2-(7-Chloro-quinolin-2-yl)-vinyl]-phenyl}-3-(2,2,2-trifluoro-acetylamino)-propyl]-benzoic acid], the inhibition at 0.001 µM (1 nM test compound) stood at 5%. Besides, under “3 nM test compound”, the inhibition at 0.003 µM was 35%. Moreover, the inhibition at 0.01 µM (10 nM test compound) was 56%.

`CCN(CC)C(=O)c1ccccc1CCC(NC(=O)c1ccccc1C(=O)O)c1cccc(/C=C/c2ccc3ccc(Cl)cc3n2)c1` (stereo not drawn) [Ia.38, N-[1-{3-[(E)-2-(7-Chloro-quinolin-2-yl)-vinyl]-phenyl}-3-(2-diethylcarbamoyl-phenyl)-propyl]-phthalamic acid]: the inhibition at 0.001 µM (1 nM test compound) was found to be 0.3%. Also, the inhibition at 0.003 µM (3 nM test compound) amounted to 51%. In addition, for the setting “10 nM test compound”, the inhibition at 0.01 µM came to 69%.

As to `CCN(CC)C(=O)c1ccccc1CCC(NC(=O)c1ccccc1C(=O)OC)c1cccc(/C=C/c2ccc3ccc(Cl)cc3n2)c1` (stereo not drawn) [Ia.48, N-[1-{3-[(E)-2-(7-Chloro-quinolin-2-yl)-vinyl]-phenyl}-3-(2-diethylcarbamoyl-phenyl)-propyl]-phthalamic acid methyl ester], the inhibition at 0.001 µM (1 nM test compound) came to 35%. Further, the inhibition at 0.003 µM (3 nM test compound) turned out to be 56%. Besides, the inhibition at 0.01 µM (10 nM test compound) was 65%.

As to `O=C(N[C@H](CCc1ccccc1C(=O)O)c1cccc(/C=C/c2ccc3ccc(Cl)cc3n2)c1)c1ccco1` [Ia.54, 2-{(R)-3-{3-[(E)-2-(7-Chloro-quinolin-2-yl)-vinyl]-phenyl}-3-[(furan-2-carbonyl)-amino]-propyl}-benzoic acid], the inhibition at 0.001 µM (1 nM test compound) stood at 50%. Under “3 nM test compound”, the inhibition at 0.003 µM worked out at 60%. Moreover, the inhibition at 0.01 µM (10 nM test compound) stood at 74%.

As for `O=C(N[C@@H](CCc1ccccc1C(=O)O)c1cccc(/C=C/c2ccc3ccc(Cl)cc3n2)c1)c1cccs1` [Ia.69, 2-{(S)-3-{3-[(E)-2-(7-Chloro-quinolin-2-yl)-vinyl]-phenyl}-3-[(thiophene-2-carbonyl)-amino]-propyl}-benzoic acid], the inhibition at 0.001 µM (1 nM test compound) stood at 34%. Moreover, where the note is “3 nM test compound”, the inhibition at 0.003 µM turned out to be 56%. In addition, under “10 nM test compound”, the inhibition at 0.01 µM was determined as 72%.

Take `O=C(O)c1ccccc1C(=O)NC(CCc1ccccc1C(=O)N1CCCC1)c1cccc(/C=C/c2ccc3ccc(Cl)cc3n2)c1` (stereo not drawn) [Ia.73, N-{1-{3-[(E)-2-(7-Chloro-quinolin-2-yl)-vinyl]-phenyl}-3-[2-(pyrrolidine-1-carbonyl)-phenyl]-propyl}-phthalamic acid]: the inhibition at 0.001 µM (1 nM test compound) was 40%. Further, the inhibition at 0.003 µM (3 nM test compound) was 67%. Also, for the setting “10 nM test compound”, the inhibition at 0.01 µM was found to be 72%.

`CN(C(=O)c1ccco1)C(CCc1ccccc1C(=O)O)c1cccc(/C=C/c2ccc3ccc(Cl)cc3n2)c1` (stereo not drawn) [Ia.76, 2-{3-{3-[(E)-2-(7-Chloro-quinolin-2-yl)-vinyl]-phenyl}-3-[(furan-2-carbonyl)-methyl-amino]-propyl}-benzoic acid]: the inhibition at 0.001 µM (1 nM test compound) came to 37%. The inhibition at 0.003 µM (3 nM test compound) came to 61%. Besides, the inhibition at 0.01 µM (10 nM test compound) worked out at 67%.

`COC(=O)c1ccccc1CCC(NC(=O)C1=C(C(=O)O)CCC1)c1cccc(/C=C/c2ccc3ccc(Cl)cc3n2)c1` (stereo not drawn) [Ia.80, 2-(3-[(2-Carboxy-cyclopent-1-enecarbonyl)-amino]-3-{3-[(E)-2-(7-chloro-quinolin-2-yl)-vinyl]-phenyl}-propyl)-benzoic acid methyl ester]: the inhibition at 0.001 µM (1 nM test compound) was found to be 43%. In addition, the inhibition at 0.003 µM (3 nM test compound) stood at 64%. Further, the inhibition at 0.01 µM (10 nM test compound) was 65%.

Consider `CC(=O)OC(CSc1ccccc1C(=O)O)c1cccc(/C=C/c2ccc3ccc(Cl)cc3n2)c1` (stereo not drawn) [Ia.118, 2-(2-Acetoxy-2-{3-[(E)-2-(7-chloro-quinolin-2-yl)-vinyl]-phenyl}-ethylsulfanyl)-benzoic acid], for which, for the setting “1 nM test compound”, the inhibition at 0.001 µM stood at 33%. For the same molecule, the inhibition at 0.003 µM (3 nM test compound) stood at 46%. The inhibition at 0.01 µM (10 nM test compound) amounted to 52%.

In the case of `C#CCOC(COc1ccccc1C(=O)O)c1cccc(/C=C/c2ccc3ccc(Cl)cc3n2)c1` (stereo not drawn) [Ia.127, 2-(2-{3-[(E)-2-(7-Chloro-quinolin-2-yl)-vinyl]-phenyl}-2-prop-2-ynyloxy-ethoxy)-benzoic acid], the inhibition at 0.001 µM (1 nM test compound) was 50%. The inhibition at 0.003 µM (3 nM test compound) turned out to be 69%. The inhibition at 0.01 µM (10 nM test compound) came to 73%.

On to `O=C(O)c1ccccc1OCC(OCCc1cccs1)c1cccc(/C=C/c2ccc3ccc(Cl)cc3n2)c1` (stereo not drawn) [Ia.143, 2-[2-{3-[(E)-2-(7-Chloro-quinolin-2-yl)-vinyl]-phenyl}-2-(2-thiophen-2-yl-ethoxy)-ethoxy]-benzoic acid], for which the inhibition at 0.001 µM (1 nM test compound) was found to be 32%. Moreover, for the setting “3 nM test compound”, the inhibition at 0.003 µM is 56%. In addition, under “10 nM test compound”, the inhibition at 0.01 µM worked out at 74%.

Turning to `CCOC(COc1ccc(OC)cc1C(=O)NS(C)(=O)=O)c1cccc(/C=C/c2ccc3ccc(Cl)cc3n2)c1` (stereo not drawn) [Ia.157, N-[2-(2-{3-[(E)-2-(7-Chloro-quinolin-2-yl)-vinyl]-phenyl}-2-ethoxy-ethoxy)-5-methoxybenzoyl]-methanesulfonamide], the inhibition at 0.001 µM (1 nM test compound) was found to be 62%. For the same molecule, the inhibition at 0.003 µM (3 nM test compound) was 72%. In addition, the inhibition at 0.01 µM (10 nM test compound) stood at 80%.

For `[2H]C([2H])([2H])Oc1ccc(OCC(OCC2CC2)c2cccc(/C=C/c3ccc4ccc(Cl)cc4n3)c2)c(C(=O)O)c1` (stereo not drawn) [Ia.172, 2-(2-{3-[(E)-2-(7-Chloro-quinolin-2-yl)-vinyl]-phenyl}-2-cyclopropylmethoxy-ethoxy)-5-triduetereo methoxy-benzoic acid], the “% Inhbition (in nM) 1” value (1 nM test compound) amounted to 50%. Also, under “3 nM test compound”, the “% Inhbition (in nM) 3” value was found to be 77%. In addition, the “% Inhbition (in nM) 10” value (10 nM test compound) was 88%.

For the molecule `C#CCO[C@H](COc1ccc(OC)cc1C(=O)O)c1cccc(/C=C/c2ccc3ccc(Cl)cc3n2)c1` [Ia.185, 2-((S)-2-{3-[(E)-2-(7-Chloro-quinolin-2-yl)-vinyl]-phenyl}-2-prop-2-ynyloxy-ethoxy)-5-methoxy-benzoic acid], the inhibition at 0.001 µM (1 nM test compound) was found to be 57%. Further, the inhibition at 0.003 µM (3 nM test compound) is 60%. Further, for the setting “10 nM test compound”, the inhibition at 0.01 µM worked out at 84%.

For the molecule `CCOC(COc1ccc(OC)cc1C(=O)O)c1cccc(/C=C/c2nc3ccccc3s2)c1` (stereo not drawn) [Ia.192, 2-{2-[3-((E)-2-Benzothiazol-2-yl-vinyl)-phenyl]-2-ethoxy-ethoxy}-5-methoxy-benzoic acid], where the note is “1 nM test compound”, the inhibition at 0.001 µM was 38%. Besides, under “3 nM test compound”, the inhibition at 0.003 µM worked out at 54%. Where the note is “10 nM test compound”, the inhibition at 0.01 µM was found to be 74%.

As for `CCOC(COc1ccc(OC)cc1C(=O)O)c1cccc(C#Cc2ccc3ccc(Cl)cc3n2)c1` (stereo not drawn) [Ia.199, 2-{2-[3-(7-Chloro-quinolin-2-ylethynyl)-phenyl]-2-ethoxy-ethoxy}-5-methoxy-benzoic acid], where the note is “1 nM test compound”, the inhibition at 0.001 µM came out at 76%. The inhibition at 0.003 µM (3 nM test compound) was found to be 88%. Also, for the setting “10 nM test compound”, the inhibition at 0.01 µM was found to be 97%.

For `CCOC(CSc1ncccc1C(=O)O)c1cccc(/C=C/c2ccc3ccc(Cl)cc3n2)c1` (stereo not drawn) [Ia.205, 2-(2-{3-[(E)-2-(7-Chloro-quinolin-2-yl)-vinyl]-phenyl}-2-ethoxy-ethylsulfanyl)-nicotinic acid], the inhibition at 0.001 µM (1 nM test compound) is 46%. Further, the inhibition at 0.003 µM (3 nM test compound) was 49%. For the same molecule, the inhibition at 0.01 µM (10 nM test compound) stood at 70%.

On to `O=C(O)c1ccccc1CCC1(c2cccc(/C=C/c3ccc4ccc(Cl)cc4n3)c2)OCCO1` [Ib.4, 2-[2-(2-{3-[(E)-2-(7-Chloro-quinolin-2yl)-vinyl]phenyl}-[1,3]dioxolan-2yl)-ethyl]-benzoic acid], for which the inhibition at 0.001 µM (1 nM test compound) worked out at 33%. For the same molecule, the inhibition at 0.003 µM (3 nM test compound) was found to be 41%. The inhibition at 0.01 µM (10 nM test compound) amounted to 62%.

`Cc1oc(=O)oc1COC(=O)c1ccccc1CCC1(c2cccc(/C=C/c3ccc4ccc(Cl)cc4n3)c2)OCCO1` [Ib.11]: the inhibition at 0.001 µM (1 nM test compound) is 32%. Moreover, the inhibition at 0.003 µM (3 nM test compound) was determined as 60%. For the same molecule, where the note is “10 nM test compound”, the inhibition at 0.01 µM came out at 74%.

`CC1(C)COC(CCc2ccccc2C(=O)O)(c2cccc(/C=C/c3ccc4ccc(Cl)cc4n3)c2)OC1` [Ib.26]: for the setting “1 nM test compound”, the inhibition at 0.001 µM was 34%. Where the note is “3 nM test compound”, the inhibition at 0.003 µM was 53%. Further, where the note is “10 nM test compound”, the inhibition at 0.01 µM worked out at 56%.
